Assay results as given in article PMC5216056 (Nature Communications, 2017).
“And” between values parts separate entries of the source, which are not always exact repeats. Equal values may be shown once. Read-outs that look alike come from different tables or passages of the source.

Columns and labels:
[1] = molecular target: T1, mCB2R (Mus musculus, UniProt P47936); assay: biochemical; type: biochemical; parameters: from tissue; host or cells: spleen of male C57BL/6J mice
[2] = molecular target: T2, mCB1R (Mus musculus, UniProt P47746); assay: biochemical
T2 construct: from tissue; host or cells: brain of male C57BL/6J mice

[3] = molecular target: T3, hCB1R (Homo sapiens, UniProt P21554); assay: cell-based; type: cell-based; settings: AtT20, read-out: Emax ± SEM GIRK hCB1R
T3 construct: host or cells: CHO

[4] = in vitro; settings: both, human, microsomes, pH 7.4
[5] = system: C57BL6/J mice; assay: Triad assay: catalepsy; type: in vivo, mouse; settings: i.p., cumulative dosing, mice
[6] = physchem; settings: pH 6.5, aqueous buffer, thermodynamic from solid
[7] = molecular target: T4, hCB2R (Homo sapiens, UniProt P34972); assay: cell-based; type: cell-based; parameters: expressed in transfected cells; host or cells: Flp-In-293 (Invitrogen #R750-07), pcDNA5/FRT; settings: read-out: Emax ± SEM pERK hCB2R
[8] = molecular target: T3, hCB1R; assay: biochemical; type: binding
[9] = molecular target: T4, hCB2R; parameters: expressed in transfected cells; host or cells: Flp-In-293 (Invitrogen #R750-07), pcDNA5/FRT
[10] = molecular target: T4, hCB2R; assay: cell-based; type: cell-based; parameters: expressed in transfected cells; host or cells: Flp-In-293 (Invitrogen #R750-07), pcDNA5/FRT; settings: AtT20, read-out: Emax ± SEM GIRK hCB2R
[11] = molecular target: T4, hCB2R; assay: cell-based; type: cell-based; parameters: expressed in transfected cells; host or cells: Flp-In-293 (Invitrogen #R750-07), pcDNA5/FRT; settings: read-out: Emax ± SEM cAMP hCB2R
[12] = system: C57BL6/J mice; assay: Triad assay: antinociception; type: in vivo, mouse; settings: i.p., cumulative dosing, mice
[13] = in vitro; settings: male, C57BL/6J, mouse, microsomes, pH 7.4
[14] = molecular target: T3, hCB1R; assay: cell-based
[15] = molecular target: T3, hCB1R; assay: cell-based; type: cell-based; settings: read-out: Emax ± SEM pERK hCB1R
[16] = system: C57BL6/J mice; assay: Triad assay: hypothermia; type: in vivo, mouse; settings: i.p., cumulative dosing, mice
[17] = molecular target: T1, mCB2R; assay: biochemical; type: binding; parameters: from tissue; host or cells: spleen of male C57BL/6J mice; settings: mouse spleen membranes; read-out: pKi ± SEM mCB2R (converted)
[18] = system: AEA reuptake in HaCaT cells; assay: cells; type: cell-based, human; settings: Homo sapiens, HaCaT
[19] = molecular target: T2, mCB1R; assay: biochemical; type: binding

T4 sequence (P34972 whole entry): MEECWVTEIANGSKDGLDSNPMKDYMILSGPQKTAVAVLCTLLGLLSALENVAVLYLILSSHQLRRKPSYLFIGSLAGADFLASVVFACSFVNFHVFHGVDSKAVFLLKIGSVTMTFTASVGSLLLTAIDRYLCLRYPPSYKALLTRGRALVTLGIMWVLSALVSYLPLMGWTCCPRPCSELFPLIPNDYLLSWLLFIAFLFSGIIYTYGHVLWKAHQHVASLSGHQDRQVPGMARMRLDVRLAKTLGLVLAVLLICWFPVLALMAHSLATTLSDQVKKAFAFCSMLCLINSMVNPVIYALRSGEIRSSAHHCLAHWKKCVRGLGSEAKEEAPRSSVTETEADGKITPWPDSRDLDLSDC
T2 sequence (P47746 whole entry): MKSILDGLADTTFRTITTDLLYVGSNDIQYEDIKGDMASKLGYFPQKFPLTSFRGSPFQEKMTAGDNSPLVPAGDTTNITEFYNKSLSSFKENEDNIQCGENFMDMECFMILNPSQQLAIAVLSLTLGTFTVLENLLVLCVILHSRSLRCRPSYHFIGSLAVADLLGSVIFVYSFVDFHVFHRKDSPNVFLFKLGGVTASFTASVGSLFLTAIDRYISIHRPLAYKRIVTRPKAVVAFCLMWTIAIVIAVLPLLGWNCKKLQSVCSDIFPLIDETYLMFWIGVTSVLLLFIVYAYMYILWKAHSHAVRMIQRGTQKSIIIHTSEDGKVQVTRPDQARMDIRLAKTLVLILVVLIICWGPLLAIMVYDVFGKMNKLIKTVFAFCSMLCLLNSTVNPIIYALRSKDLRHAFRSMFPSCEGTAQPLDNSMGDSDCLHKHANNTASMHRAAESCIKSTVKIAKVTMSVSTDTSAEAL
T3 sequence (P21554 whole entry): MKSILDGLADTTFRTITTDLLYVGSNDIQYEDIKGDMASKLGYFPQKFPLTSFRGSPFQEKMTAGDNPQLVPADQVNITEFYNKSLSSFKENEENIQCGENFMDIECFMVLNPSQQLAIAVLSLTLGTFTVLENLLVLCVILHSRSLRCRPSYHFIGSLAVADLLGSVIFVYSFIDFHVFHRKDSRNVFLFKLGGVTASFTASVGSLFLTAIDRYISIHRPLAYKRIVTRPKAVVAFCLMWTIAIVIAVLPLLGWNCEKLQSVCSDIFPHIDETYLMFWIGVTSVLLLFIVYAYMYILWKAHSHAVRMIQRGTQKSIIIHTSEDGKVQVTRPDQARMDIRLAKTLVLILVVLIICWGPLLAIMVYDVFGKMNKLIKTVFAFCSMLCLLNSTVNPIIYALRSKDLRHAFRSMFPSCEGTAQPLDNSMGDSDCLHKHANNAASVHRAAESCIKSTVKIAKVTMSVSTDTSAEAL
T1 sequence (P47936 whole entry): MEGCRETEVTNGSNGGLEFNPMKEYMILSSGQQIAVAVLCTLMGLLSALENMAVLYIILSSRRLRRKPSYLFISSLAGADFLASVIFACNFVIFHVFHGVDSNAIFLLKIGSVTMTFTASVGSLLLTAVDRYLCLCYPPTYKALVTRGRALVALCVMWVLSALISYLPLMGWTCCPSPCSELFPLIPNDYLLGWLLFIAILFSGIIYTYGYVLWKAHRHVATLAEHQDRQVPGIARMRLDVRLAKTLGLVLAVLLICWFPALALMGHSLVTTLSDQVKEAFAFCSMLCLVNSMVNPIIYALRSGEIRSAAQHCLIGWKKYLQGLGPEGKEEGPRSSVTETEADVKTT

Work on `CCCCCCC(C)(C)c1cc(O)c2c(c1)OC(C)(C)[C@@H]1CC=C(CO)C[C@@H]21` [HU210] yielded an EC50 ([1]; mouse spleen, read-out: pEC50 ± SEM cAMP mCB2R (converted)) of 6.61 nM, an Emax ([1]; read-out: Emax cAMP mCB2R) of 68% and an EC50 ([2]; pEC50 ± SEM cAMP mCB1R) of 0.0933 nM. For the same compound, the Emax ([2]; read-out: Emax cAMP mCB1R) was 65%, the Emax [3] was 97 ± 8% and the microsomal CLint [4] was 25 µL/min/mg. For the same compound, the “catalepsy ED50 (95% CL)” value [5] was 0.19 (0.14–0.27) mg kg^−1, the solubility kinetic [6] was < 0.2 µg/mL and < 0.5 µM and the Emax [7] was 105 ± 10%. For the same compound, the Ki [8] was 0.282 nM, the “LogR GIRK” value [9] was 7.19 and the “LogR pERK” value [9] was 8.22. The “RE GIRK” value [9] was 0.21, the “RE pERK” value [9] was 0.15 and the “pERK-GIRK bias factor (BF)” value [9] was 0.71. The “pERK-GIRK ΔΔlogR” value [9] was -0.15, the “ΔLogR GIRK” value [9] was -0.67 and the “ΔLogR pERK” value [9] was -0.82. It also gave a Pct acceptor (PAMPA) of 0%, a Pct donor (PAMPA) of 23% and a Pct membrane (PAMPA, compound found in membranes) of 76%. For the same compound, the “Pampa Peff” value (membrane permeation coefficient) was 0.22 cm/s*10-6, the Emax [10] was 105 ± 4% and the Emax [11] was 94 ± 0.1%. For the same compound, the “antinociception ED50 (95% CL)” value [12] was 0.41 (0.31–0.54) mg kg^−1, the microsomal CLint [13] was 33 µL/min/mg and the EC50 ([14]; pEC50 ± SEM cAMP hCB1R) was 0.263 nM. The Emax ([14]; read-out: Emax ± SEM cAMP hCB1R) was 104 ± 3%, the Emax [15] was 96 ± 7% and the “hypothermia ED50 (95% CL)” value [16] was 0.35 (0.30–0.41) mg kg^−1. For the same compound, the Ki [17] was 0.537 nM, the inhibition at 10 µM ([18]; read-out: AEA reuptake % inhibition, effect at 10 µM, HaCaT cells, 10 µM (values marked *)) was 44% and the IC50 ([18]; read-out: AEA reuptake IC50 (95% CI) HaCaT cells) was > 5000 nM. It also gave a Ki [19] of 1.1 nM.
